Assay results as given in patent publication US11185544B2, “Formulations of 4-methyl-5-(pyrazin-2-yl)-3H-l,2-dithiole-3-thione, taste-modified formulations, and methods of making and using same” (ST IP Holding AG, priority 2016, dated 2021).

Assays:
[1] = tested on: primary human gingival epithelial cells (HGEPp); assay: cells; settings: Epithelial cell, 4 h, read-out: IC50 of H2O2 in HGEPp cells
Description: Pooled primary HGEPps were propagated in CnT-Prime epithelial culture medium provided by CellnTec on 100 mm petri dishes coated with 30 mg/ml Type I rat tail collagen (BD Biosciences) diluted in Dulbecco's phosphate-buffered saline (DPBS). […] The cells were harvested when they reached 70-90% confluency as observed by light microscopy. For routine cultivation, the medium was changed every 3 days. For both the cell viability and ROS assays, the cells from passages 3-7 were seeded at 5×0 3, 2.5×10 4, 5×0 4 cells/cm 2 density to grow cell monolayers in 24-well flat-bottomed tissue culture plates and acclimated overnight at 37° C. […]
Cell Survival Assay (TACS MTT Kit) • 1. Plate cell concentration was selected to be 6.25×10^5/ml to yield an OD absorbance within the linear portion of the control curve. • 2. Once the HGEPp cells were cultured and ready on the microplate, the media was removed from all the wells and discarded. […] Removed the plate cover and measured the absorbance of the wells, including the blanks at 570 nm. • 8. Determined the average values from triplicate readings after subtracting the average value for the blanks.
HGEPp cells were exposed to different concentrations of H2O2 for 4 h to examine H2O2-induced oxidative stress. The cells were exposed to 0-0.6 mM H2O2 for 4 h and cell viability was evaluated using the TACS MTT Cell Proliferation Assay Kit. […]

[2] = tested on: reactive oxygen species (ROS) in HGEPp cells; settings: H2O2-treated cells, 0.3 mM for 4 h
Excerpt: 2. measure the effect of recrystallized oltipraz amd formulated oltipraz on hydroxyl, peroxyl and other reactive oxygen species within HGEPp cells, using Cell Biolabs' OxiSelect™ Intracellular ROS Assay Kit. This assay employs the cell-permeable fluorogenic probe 2′,7′-dichlorodihydrofluorescein diacetate (DCFH-DA) which diffuses into cells and is deacetylated by cellular esterases to a nonfluorescent DCFH which is then rapidly oxidized to highly fluorescent 2′,7′-dichlorodihydrofluorescein (DCF) by ROS.
Pooled primary HGEPps were propagated in CnT-Prime epithelial culture medium provided by CellnTec on 100 mm petri dishes coated with 30 mg/ml Type I rat tail collagen (BD Biosciences) diluted in Dulbecco's phosphate-buffered saline (DPBS). […] The cells were harvested when they reached 70-90% confluency as observed by light microscopy. For routine cultivation, the medium was changed every 3 days. […]
Oxidative Stress Measurement ROS Assay (OxiSelect Kit) • 1. […] Once the HGEPp cells were cultured and ready on a microplate, the media was removed from all the wells and discarded. […] Fluorescence was read on a Fluorescence Plate Reader after 1 hour. […] Transferred 150 μL of the mixture to a fresh 24-well plate for fluorescence measurements at 530 nm. […]
Intracellular ROS was measured using a Spectramax M3 microplate reader.

- IC50 [1]: 300 µM
SMILES: OO [Sample H2O2, hydrogen peroxide]
- ROS levels compared to normal control cells (100%) [2]: 128%
